This assay addresses P. falciparum apicoplast DNA polymerase (Pf-apPOL) (Plasmodium falciparum, UniProt Q8ILY1). In words: Fluorescence-based high-throughput DNA polymerase assay (molecular beacon), primary screen and dose-response.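 As to % inhibition ApPOL 90': test concentration in µM.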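 As to % inhibition apPOL 180': test concentration in µM.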 Format: biochemical. A digest of the protocol: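 Single-point screening used 10 µM compound with 20 nM polymerase, 20 nM hairpin substrate and 6 µM dNTPs for 90 min at 25 °C. Confirmatory titrations (2.5–80 µM) followed fluorescence at three times, and IC50 was derived from a fit including a cooperativity term n.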

The mark [1] stands for this setting: supplemental file 2, sheet IC50 nontoxic compounds; Pf-apPOL.
Where [2] appears, read: primary screen value of the 186 hits; unit not given; 90 min, 10 µM.

Chain of P. falciparum apicoplast DNA polymerase (Pf-apPOL) (Q8ILY1 entry or part of it): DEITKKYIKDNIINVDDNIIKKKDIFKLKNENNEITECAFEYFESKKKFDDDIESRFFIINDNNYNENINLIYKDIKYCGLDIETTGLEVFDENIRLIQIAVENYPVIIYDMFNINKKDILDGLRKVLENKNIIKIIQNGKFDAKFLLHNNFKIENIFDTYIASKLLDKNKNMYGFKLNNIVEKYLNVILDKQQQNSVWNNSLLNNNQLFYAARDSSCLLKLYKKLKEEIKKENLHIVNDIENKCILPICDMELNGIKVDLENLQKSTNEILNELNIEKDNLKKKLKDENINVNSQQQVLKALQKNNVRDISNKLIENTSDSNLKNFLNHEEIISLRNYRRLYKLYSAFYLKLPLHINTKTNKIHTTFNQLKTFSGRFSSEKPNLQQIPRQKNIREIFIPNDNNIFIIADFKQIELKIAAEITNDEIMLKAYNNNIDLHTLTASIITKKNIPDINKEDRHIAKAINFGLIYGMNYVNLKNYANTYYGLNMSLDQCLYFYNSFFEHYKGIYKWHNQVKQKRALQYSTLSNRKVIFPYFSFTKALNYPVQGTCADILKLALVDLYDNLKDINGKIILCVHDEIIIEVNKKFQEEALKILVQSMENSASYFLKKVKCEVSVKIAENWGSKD

Consider `Cc1ccccc1C(=O)N1CCc2c(nc3cc(-c4ccccc4)[nH]n3c2=O)C1` [Molecule 41], for which, under setting [1], the 50% inhibitory concentration (IC50) is 12.4 µM.

On to `O=C(Cn1ccc2c(=O)[nH]ccc21)Nc1cc(F)ccc1F` [Molecule 42], for which, under setting [1], the IC50 was 12.7 µM.

Take `COc1ccc(C2CC(c3ccc(Cl)cc3Cl)Nc3nc(N)nn32)cc1OC` (stereo not shown) [Molecule 43]: under setting [1], the IC50 is 11.7 µM.

With `COCC(=O)Nc1c(-c2cccc(F)c2)nc2cc(C)ccn12` [Molecule 44, COCC(=O)Nc1c(nc2n1ccc(c2)C)c1cccc(c1)F], the “% inhibition Apo pol 10'” value was determined as 6.785% (DRC-1; 10'; concentration 2.5); 30.033% (DRC-1; 10'; concentration 5); 50.0286% (DRC-1; 10'; concentration 10); 55.8788% (DRC-1; 10'; concentration 20); 80.2368% (DRC-1; 10'; concentration 40); 83.5036% (DRC-1; 10'; concentration 80). The “% inhibition Apol 90'” value by setting is: (DRC-1; 90'; concentration 2.5) 1.502%; (DRC-1; 90'; concentration 5) 18.1602%; (DRC-1; 90'; concentration 10) 35.5455%; (DRC-1; 90'; concentration 20) 42.2252%; (DRC-1; 90'; concentration 40) 74.869%; (DRC-1; 90'; concentration 80) 86.4562%. Further, the “% inhibition apPOL 180'” value reads like this: (DRC-1; 180'; concentration 2.5) -2.445%; (DRC-1; 180'; concentration 5) 8.4449%; (DRC-1; 180'; concentration 10) 23.452%; (DRC-1; 180'; concentration 20) 30.1351%; (DRC-1; 180'; concentration 40) 67.7953%; (DRC-1; 180'; concentration 80) 86.4237%. Besides, the “% inhibition apPOL 180'” value by setting is: (DRC-2; 180'; concentration 2.5) 3.16%; (DRC-2; 180'; concentration 5) 15%; (DRC-2; 180'; concentration 10) 27%; (DRC-2; 180'; concentration 20) 51%; (DRC-2; 180'; concentration 40) 73%; (DRC-2; 180'; concentration 80) 77%. Also, the “% inhibition apPOL 180'” value reads like this: (conc. 10; 180'; DRC-2) 27%; (conc. 40; 180'; DRC-2) 73%. For the same compound, the “% inhibition Apo pol 5'” value amounted to 10% (DRC-2; 5'; concentration 2.5); 29% (DRC-2; 5'; concentration 5); 41% (DRC-2; 5'; concentration 10); 50% (DRC-2; 5'; concentration 20); 52% (DRC-2; 5'; concentration 40); 45% (DRC-2; 5'; concentration 80). The “% inhibition Apol 40'” value worked out at 9% (DRC-2; 40'; concentration 2.5); 27% (DRC-2; 40'; concentration 5); 40% (DRC-2; 40'; concentration 10); 59% (DRC-2; 40'; concentration 20); 69% (DRC-2; 40'; concentration 40); 69% (DRC-2; 40'; concentration 80). For the same compound, the “% inhibition Apol 40'” value runs as follows: (conc. 5; 40'; DRC-2) 27%; (conc. 40; 40'; DRC-2) 69%; (conc. 80; 40'; DRC-2) 69%. Moreover, the “% inhibition ApPOL 90'” value (DRC-2; 90'; concentration 2.5) was 8%; the “% inhibition ApPOL 90'” value (DRC-2; 90'; concentration 5) amounted to 24%; the “% inhibition ApPOL 90'” value (DRC-2; 90'; concentration 10) came out at 38%; the “% inhibition ApPOL 90'” value (DRC-2; 90'; concentration 20) is on record as 58%; the “% inhibition ApPOL 90'” value (DRC-2; 90'; concentration 40) came out at 73%; the “% inhibition ApPOL 90'” value (DRC-2; 90'; concentration 80) is 74%. Also, under “conc. 40; 90'; DRC-2”, the “% inhibition ApPOL 90'” value turned out to be 73%. For the same compound, the “DNA Pol” value (primary screen value by plate and well; 90 min, 10 µM) worked out at 43; the “DNA Pol” value under setting [2] turned out to be 43.

As to `COCC(=O)Nc1c(-c2cccc(F)c2)nc2cc(C)ccn12` [Molecule 44], the half-maximal inhibitory concentration (IC50) under setting [1] amounted to 11.1 µM.

Regarding `O=C(O)c1nc(-c2ccccc2)nc2c1OCO2` [Molecule 45, OC(=O)c1nc(nc2c1OCO2)c1ccccc1], the “% inhibition Apo pol 10'” value (DRC-1; concentration 2.5; 10') worked out at 6.785%; the “% inhibition Apo pol 10'” value (DRC-1; concentration 5; 10') is recorded as 18.6858%; the “% inhibition Apo pol 10'” value (DRC-1; concentration 10; 10') was found to be 46.4099%; the “% inhibition Apo pol 10'” value (DRC-1; concentration 20; 10') is recorded as 71.5187%; the “% inhibition Apo pol 10'” value (DRC-1; concentration 40; 10') is 89.2051%; the “% inhibition Apo pol 10'” value (DRC-1; concentration 80 (unit not given); 10') amounted to 95.8219%. Moreover, the “% inhibition Apol 90'” value is -0.7182% (DRC-1; concentration 2.5; 90'); 2.776% (DRC-1; concentration 5; 90'); 22.6615% (DRC-1; concentration 10; 90'); 46.4112% (DRC-1; concentration 20; 90'); 75.6472% (DRC-1; concentration 40; 90'); 92.7909% (DRC-1; concentration 80; 90'). The “% inhibition apPOL 180'” value was -6.279% (DRC-1; concentration 2.5; 180'); -4.7971% (DRC-1; concentration 5; 180'); 10.4504% (DRC-1; concentration 10; 180'); 26.9983% (DRC-1; concentration 20; 180'); 64.3043% (DRC-1; concentration 40; 180'); 90.3482% (DRC-1; concentration 80; 180'). Besides, the “% inhibition apPOL 180'” value (DRC-2; 180'; concentration 20) amounted to 34%; the “% inhibition apPOL 180'” value (DRC-2; concentration 2.5; 180') is reported as -1.61%; the “% inhibition apPOL 180'” value (DRC-2; concentration 5; 180') is -1.28%; the “% inhibition apPOL 180'” value (DRC-2; concentration 10; 180') came to 17%; the “% inhibition apPOL 180'” value (DRC-2; concentration 20; 180') is listed as 34%; the “% inhibition apPOL 180'” value (DRC-2; concentration 40; 180') amounted to 68%. The “% inhibition apPOL 180'” value (DRC-2; concentration 80; 180') worked out at 82%. Also, the “% inhibition Apol 40'” value runs as follows: (DRC-2; 40'; concentration 2.5) 7%; (DRC-2; 40'; concentration 10) 34%; (DRC-2; 40'; concentration 40) 69%; (DRC-2; concentration 2.5; 40') 7%; (DRC-2; concentration 5; 40') 14%; (DRC-2; concentration 10; 40') 34%. Moreover, the “% inhibition Apol 40'” value by setting is: (DRC-2; concentration 20; 40') 51%; (DRC-2; concentration 40; 40') 69%; (DRC-2; concentration 80; 40') 77%. Besides, the “% inhibition ApPOL 90'” value is, setting by setting: (DRC-2; 90'; concentration 5) 7%; (DRC-2; 90'; concentration 40) 69%; (DRC-2; concentration 2.5; 90') 4%; (DRC-2; concentration 5; 90') 7%; (DRC-2; concentration 10; 90') 27%; (DRC-2; concentration 20; 90') 45%. For the same compound, the “% inhibition ApPOL 90'” value by setting is: (DRC-2; concentration 40; 90') 69%; (DRC-2; concentration 80; 90') 80%. Moreover, the “% inhibition Apo pol 5'” value runs as follows: (DRC-2; concentration 2.5; 5') 13%; (DRC-2; concentration 5; 5') 24%; (DRC-2; concentration 10; 5') 42%; (DRC-2; concentration 20; 5') 50%; (DRC-2; concentration 40; 5') 58%; (DRC-2; concentration 80; 5') 60%. Further, the “DNA Pol” value under setting [2] worked out at 34 and the “DNA Pol” value (primary screen value; head prints only 'DNA Pol'; 90 min, 10 µM) is 34.

As for `O=C(O)c1nc(-c2ccccc2)nc2c1OCO2` [Molecule 45], the IC50 under setting [1] was determined as 11.2 µM.

As to `O=C(Cc1cc(=O)[nH]c(SCc2ccccc2)n1)Nc1ccc2c(c1)OCO2` [Molecule 46], under setting [1], the IC50 was 15.5 µM.

As for `Cc1cccc2c(C(=O)NC(C)C)cc(N(C)C)nc12` [Molecule 47], under setting [1], the IC50 came to 15.9 µM.

`Cc1ccc(NC(=O)Cn2ccc3c(=O)[nH]ccc32)cc1F` [Molecule 48]: the IC50 under setting [1] came out at 15.3 µM.

Turning to `COc1ccccc1CC(=O)N1CCc2c(nc3cc(-c4ccccc4Cl)[nH]n3c2=O)C1` [Molecule 49], the IC50 under setting [1] amounted to 12.5 µM.

The values are drawn from article PMC9090415, “Discovery of small molecule inhibitors of Plasmodium falciparum apicoplast DNA polymerase” (Journal of Enzyme Inhibition and Medicinal Chemistry, 2022).
